Measurements: US4071627A, “2-Oximino-tetrahydro-1,4-thiazin-5-one compounds and pesticidal carbamate derivatives” (priority 1976, dated 1978)

Tests used:
[1] = tested on: Mexican bean beetle (Epilachna varivestis, Muls.); experiment: Mexican Bean Beetle Leaf Spray Test; format: in vivo; parameters: key: A: excellent control; B: partial control; C: no control; settings: 500 ppm, three days, fourth instar larvae
Method: (§1) Suspensions of the test compounds were prepared by dissolving one gram of compound in 50 milliliters of acetone in which had been dissolved 0.1 gram (10 percent of the weight of compound) of an alkylphenoxy polyethoxyethanol surfactant, as an emulsifying or dispersing agent. The resulting solution was mixed into 150 milliliters of water to give roughly 200 milliliters of a suspension containing the compound in finely divided form. The thus-prepared stock suspension contained 0.5 percent by weight of test compound. The test concentrations in parts per million by weight employed in the tests described hereinbelow were obtained by appropriate dilutions of the stock suspension with water. The test procedures were as follows:
Fourth instar larvae of the Mexican bean beetle (Epilachna varivestis, Muls.), reared on Tendergreen bean plants at a temperature of 80°±5° F. and 50±5 percent relative humidity, were the test insects.
The test compounds were formulated by diluting the stock suspension with water to give a suspension containing 500 parts of test compound per million parts of final formation. Potted Tendergreen bean plants of standard height and age were placed on a revolving turntable and sprayed with 100-110 milliliters of test compound formulated by use of a DeVilbiss spray gun set at 10 psig air pressure. This application, which lasted 25 seconds, was sufficient to wet plants to run-off. As a control, 100-110 milliliters of a water-acetone-emulsifier solution containing no test compound were also sprayed on infested plants. When dry, the paired leaves were separated and each was placed in a 9 centimeter Petri dish lined with moistened filter paper. Five randomly selected larvae were introduced into each dish, and the dishes were closed. The closed dishes were labeled and held at a temperature of 80°±5° F. for three days. Although the larvae could easily consume the leaf within 24 to 48 hours, no more food was added. Larvae which were unable to move the length of the body, even upon stimulation, were considered dead.
(§2) In these tests the pesticidal activity of the compounds against aphid, mite, Southern Armyworm, Mexican Bean Beetle, and house fly was rated as follows: […]

[2] = tested on: southern armyworm (Prodenia eridania, (Cram.)); experiment: Southern Armyworm Leaf Spray Test; format: in vivo; parameters: key: A: excellent control; B: partial control; C: no control; settings: 500 ppm, three days, larvae
Method: as §1
Larvae of the southern armyworm (Prodenia eridania, (Cram.)), reared on Tendergreen bean plants at a temperature of 80°±5° F. and a relative humidity of 50±5 percent, constituted the test insects.
The test compounds were formulated by diluting the stock suspension with water to give a suspension containing 500 parts of test compound per million parts of final formulation. Potted Tendergreen bean plants of standard height and age were placed on a revolving turntable and sprayed with 100-110 milliliters of test compound formulation by use of a DeVilbiss spray gun set at 10 psig air pressure. This application, which lasted 25 seconds, was sufficient to wet plants to run-off. As a control, 100-110 milliliters of a water-acetone-emulsifier solution containing no test compound were also sprayed on infested plants. When dry, the paired leaves were separated and each one was placed in a 9 centimeter Petri dish lined with moistened filter paper. Five randomly selected larvae were introduced into each dish and the dishes were closed. The closed dishes were labeled and held at 80°-85° F. for three days. Although the larvae cound easily consume the whole leaf within 24 hours, no more food was added. Larvae which were unable to move the length of the body, even upon stimulation by prodding, were considered dead. Percent mortality was […] for various concentration levels.
as §2

[3] = tested on: house flies (Musca domestica, L.); experiment: Fly Bait Test; format: in vivo; parameters: key: A: excellent control; B: partial control; C: no control; settings: 500 ppm, 24 hours, adults
Method: as §1
Four to six day old adult house flies (Musca domestica, L.), reared according to the specifications of the Chemical Specialities Manufacturing Association (Blue Book, McNair-Dorland Co., N.Y. 1954; pages 243-244, 261) under controlled conditions of 80°±5° F. and 50±5 percent relative humidity, were the test insects. The flies were immobilized by anesthetizing with carbon dioxide and 25 immobilized individuals, males and females, were transferred to a cage consisting of a standard food strainer about 5 inches in diameter which was inverted over a wrapping-paper-covered surface. The test compounds were formulated by diluting the stock suspension with a 10 percent (by weight) sugar solution to give a suspension containing 500 parts of test compound per million parts of final formulation, by weight. Ten milliliters of the test formulation were added to a souffle cup containing a 1-inch square of an absorbent cotton pad. This bait cup was introduced and centered on the blotting paper under the food strainer prior to admitting the anesthetized flies. The caged flies were allowed to feed on the bait for 24 hours, at a temperature of 80°±5° F. and the relative humidity of 50±5 percent.
as §2

[4] = tested on: two-spotted mite (Tetranychus urticae Koch); experiment: Mite Foliage Spray Test; format: in vivo; parameters: key: A: excellent control; B: partial control; C: no control; settings: 500 ppm, six days, adults and nymphs
Method: as §1
Adults and nymphal stages of the two-spotted mite (Tetranychus urticae Koch), reared on Tengergreen bean plants at 80±5 percent relative humidity, were the test organisms. Infested leaves from a stock culture were placed on the primary leaves of two bean plants 6 to 8 inches in height, growing in a 21/2 inch clay pot. 150-200 Mites, a sufficient number for testing, transferred from the excised leaves to the fresh plants in a period of 24 hours. Following the 24 hour transfer period, the excised leaves were removed from the infested plants. The test compounds were formulated by diluting the stock suspension with water to give a suspension containing 500 parts of test compound per million parts of final formulation. The potted plants (one pot per compound) were placed on a revolving turntable and sprayed with 100-110 milliliters of test compound formulation by use of a DeVilbiss spray gun set at 40 psig. air pressure. This application, which lasted 25 seconds, was sufficient to wet the plants to run-off. As a control, 100-110 milliliters of a water solution containing acetone and emulsifier in the same concentrations as the test compound formulation, but containing no test compound, were also sprayed on infested plants. The sprayed plants were held at 80±5 percent relative humidity for six days, after which a mortality count of motile forms was made. Microscopic examination for motile forms was made on the leaves of the test plants. Any individual which was capable of locomotion upon prodding was considering living.
as §2

in vivo = settings: rat, po
Method: Certain of these compositions were also evaluated to determine their peroral toxicity to mammals. The animal selected for this experiment was the rat.

[5] = tested on: bean aphid (Aphis fabae Scop.); experiment: Bean Aphid Foliage Spray Test; format: in vivo; parameters: key: A: excellent control; B: partial control; C: no control; settings: 500 ppm, 24 hours, adults and nymphs
Method: as §1
Adults and nymphal stages of the bean aphid (Aphis fabae Scop.) reared on potted dwarf nasturtium plants at 65°-70° F. and 50-70 percent relative humidity, constituted the test insects. For testing purposes, the number of aphids per pot was standardized to 100-150 by trimming plants containing excess aphids.
The test compounds were formulated by diluting the stock suspension with water to give a suspension containing 500 parts of test compound per million parts of final formulation.
The potted plants (one pot per compound tested) infested with 100-150 aphids, were placed on a revolving turntable and sprayed with 100-110 milliliters of test compound formulated by use of a DeVilbiss spray gun set at 40 psig. air pressure. This application, which lasted 25 seconds, was sufficient to wet the plants to run-off. As a control, 100-110 milliliters of a water-acetone-emulsifier solution containing no test compound were also sprayed on infested plants. After spraying, the pots were placed on their sides on a sheet of white standard mimeograph paper which had been previously ruled to facilitate counting. Temperature and humidity in the test room during the 24 hour holding period were 65°-70° F. and 50-70 percent, respectively. Aphids which fell onto the paper and were unable to remain standing after being uprighted were considered dead. Aphids remaining on the plants were observed closely for movement and those which were unable to move the length of the body upon stimulation by prodding were considered dead. Percent mortality was recorded for various concentration levels.
as §2

SMILES | Biological Activity, Mexican Bean Beetle [1] | Biological Activity, Southern Armyworm [2] | Biological Activity, House Fly [3] | Biological Activity, Mite [4] | LD50 (in vivo) [mg/kg] | Biological Activity, Aphid [5]
CNC(=O)ON=C1SC(C)C(=O)NC1(C)C (stereo not drawn) [2-[O-(Methylcarbamoyl)oximino]-3,3,6-trimethyltetrahydro-1,4-thiazin-5-one] | A | B | A | A | 0.884 | A
CNC(=O)ON=C1SCC(=O)NC1C (stereo not drawn) [2-[O-(Methylcarbamoyl)oximino]-3-methyltetrahydro-1,4-thiazin-5-one] | A | A | A | A | 5.66 | B
CC1C(=NOC(=O)N(C)SC(Cl)(Cl)Cl)SCC(=O)N1C (stereo not drawn) [2-[O-(N-Trichloromethanesulfenyl-N-methylcarbamoyl)oximino]-3,4-dimethyltetrahydro-1,4-thiazin-5-one] | A | B | A | A | 3.54 | B
